Laboratory results reported in PubChem BioAssay (NCI).
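96-well plates; 48 h exposure; 5 concentrations. Endpoints by linear interpolation between flanking doses. Not reached: highest tested concentration assigned. TGI: concentration producing complete growth inhibition.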

Columns and labels:
Experiment in all cases: inhibition of tumour cell growth, NCI panel, 48 h
[1] = tested on: HOP-92 NSCLC
[2] = tested on: SNB-75 CNS
[3] = tested on: A498 renal
[4] = tested on: SF-268 CNS
[5] = tested on: CAKI-1 renal
[6] = tested on: HL-60(TB) leukemia
[7] = tested on: HOP-62 NSCLC
[8] = tested on: LOX IMVI melanoma
[9] = tested on: T-47D breast
[10] = tested on: NCI-H460 lung
[11] = tested on: HCT-116 colon
[12] = tested on: UACC-257 melanoma
[13] = tested on: SNB-19 CNS
[14] = tested on: RXF 393 renal
[15] = tested on: U251 CNS
[16] = tested on: SF-295 CNS
[17] = tested on: OVCAR-5 ovarian
[18] = tested on: BT-549 breast
[19] = tested on: MOLT-4 leukemia
[20] = tested on: HT29 colon
[21] = tested on: SK-MEL-2 melanoma
[22] = tested on: DU-145 prostate
[23] = tested on: A549 NSCLC
[24] = tested on: MALME-3M melanoma
[25] = tested on: COLO 205 colon
[26] = tested on: HS 578T breast
[27] = tested on: UACC-62 melanoma
[28] = tested on: OVCAR-3 ovarian
[29] = tested on: HCC-2998 colon
[30] = tested on: NCI/ADR-RES ovarian
[31] = tested on: M14 melanoma
[32] = tested on: HCT-15 colon
[33] = tested on: SK-MEL-28 melanoma
[34] = tested on: 786-0 renal
[35] = tested on: MDA-MB-231 breast
[36] = tested on: UO-31 renal
[37] = tested on: SN12C renal
[38] = tested on: SK-OV-3 ovarian
[39] = tested on: MCF7 breast
[40] = tested on: NCI-H23 lung
[41] = tested on: SW-620 colon
[42] = tested on: OVCAR-8 ovarian
[43] = tested on: NCI-H226 lung
[44] = tested on: ACHN renal
[45] = tested on: SK-MEL-5 melanoma
[46] = tested on: KM12 colon
[47] = tested on: EKVX NSCLC
[48] = tested on: K-562 leukemia
[49] = tested on: TK-10 renal
[50] = tested on: OVCAR-4 ovarian
[51] = tested on: MDA-N
[52] = tested on: PC-3 prostate
[53] = tested on: RPMI-8226 leukemia
[54] = tested on: NCI-H522 lung
[55] = tested on: IGROV1 ovarian
[56] = tested on: MDA-MB-435
[57] = tested on: SF-539 CNS
[58] = tested on: CCRF-CEM leukemia

O=P(O)(O)C(O)/C=C/c1ccccc1 (stereo unspecified)
TGI [1]: > 100 µM
TGI [2]: > 100 µM
TGI [3]: > 100 µM
TGI [4]: > 100 µM
TGI [5]: > 100 µM
TGI [6]: > 100 µM
TGI [7]: > 100 µM
TGI [8]: > 100 µM
TGI [9]: > 100 µM
TGI [10]: > 100 µM
TGI [11]: > 100 µM
TGI [12]: > 100 µM
TGI [13]: > 100 µM
TGI [14]: > 100 µM
TGI [15]: > 100 µM
TGI [16]: > 100 µM
TGI [17]: > 100 µM
TGI [18]: > 100 µM
TGI [19]: > 100 µM
TGI [20]: > 100 µM
TGI [21]: > 100 µM
TGI [22]: > 100 µM
TGI [23]: > 100 µM
TGI [24]: > 100 µM
TGI [25]: > 100 µM
TGI [26]: > 100 µM
TGI [27]: > 100 µM
TGI [28]: > 100 µM
TGI [29]: > 100 µM
TGI [30]: > 100 µM
TGI [31]: > 100 µM
TGI [32]: > 100 µM
TGI [33]: > 100 µM
TGI [34]: > 100 µM
TGI [35]: > 100 µM
TGI [36]: > 100 µM
TGI [37]: > 100 µM
TGI [38]: > 100 µM
TGI [39]: > 100 µM
TGI [40]: > 100 µM
TGI [41]: > 100 µM
TGI [42]: > 100 µM
TGI [43]: > 100 µM
TGI [44]: > 100 µM
TGI [45]: > 100 µM
TGI [46]: > 100 µM
TGI [47]: > 100 µM
TGI [48]: > 100 µM
TGI [49]: > 100 µM
TGI [50]: > 100 µM
TGI [51]: > 100 µM
TGI [52]: > 100 µM
TGI [53]: > 100 µM
TGI [54]: > 100 µM
TGI [55]: > 100 µM
TGI [56]: > 100 µM

Cc1cc2[nH]c3c(C#N)c(-c4ccccc4)c(N=Nc4cccc(C(F)(F)F)c4)c(=O)n3c2cc1C
TGI [2]: > 100 µM
TGI [3]: > 100 µM
TGI [4]: > 100 µM
TGI [5]: > 100 µM
TGI [7]: > 100 µM
TGI [8]: > 100 µM
TGI [9]: > 100 µM
TGI [10]: > 100 µM
TGI [11]: > 100 µM
TGI [12]: > 100 µM
TGI [13]: > 100 µM
TGI [14]: > 100 µM
TGI [15]: > 100 µM
TGI [16]: > 100 µM
TGI [17]: > 100 µM
TGI [18]: > 100 µM
TGI [21]: > 100 µM
TGI [23]: > 100 µM
TGI [57]: > 100 µM
TGI [24]: > 100 µM
TGI [25]: > 100 µM
TGI [28]: 57 µM
TGI [29]: > 100 µM
TGI [30]: > 100 µM
TGI [31]: > 100 µM
TGI [32]: > 100 µM
TGI [33]: > 100 µM
TGI [58]: > 100 µM
TGI [34]: > 100 µM
TGI [35]: > 100 µM
TGI [36]: > 100 µM
TGI [37]: > 100 µM
TGI [38]: > 100 µM
TGI [39]: > 100 µM
TGI [40]: 93.4 µM
TGI [41]: > 100 µM
TGI [42]: > 100 µM
TGI [43]: > 100 µM
TGI [44]: > 100 µM
TGI [45]: 51.8 µM
TGI [46]: > 100 µM
TGI [47]: > 100 µM
TGI [49]: > 100 µM
TGI [50]: > 100 µM
TGI [51]: > 100 µM
TGI [52]: > 100 µM
TGI [53]: > 100 µM
TGI [54]: 69.4 µM
TGI [55]: > 100 µM
TGI [56]: > 100 µM
